How the values were obtained:
[1] = FRET spectroscopy probe dilution assay, membrane intercalation; format: binding; details: NBD-PE/rhodamine-PE, peptide 0.2-0.8 μM, 20 mM HEPES 150 mM NaCl pH 7.4, 37°C
Experimental: FRET spectroscopy served as a sensitive tool to detect lipid dependence of the membrane interaction of antimicrobial peptides. For this, all peptides were added to liposomes consisting of zwitterionic PC alone, of a mixture of PC and of negatively charged PS, as well as of pure PS (Figure 1). All lipid vesicles were doped with donor and acceptor dyes, peptides were added, and the emission intensities of both dyes were monitored over time. An increase of the fluorescence intensity of the donor (IDonor) and a simultaneous decrease of the fluorescence intensity of the acceptor dye (IAcceptor), i.e. a reduced FRET efficacy, indicated an increase in the overall mean distance between labeled phospholipids, and corresponded to an insertion of peptides into the lipid bilayer. For clarity, the IDonor/IAcceptor ratio is shown (Figure 1).
Figure 1 FRET spectroscopy. (A-C) Binding to and insertion of peptide C7A-D21K into phospholipid membranes (A) C7A-D21K was added at time point 50 s to liposomes (10 μM) consisting of pure PC, (B) a 90:10 molar mixture of PC:PS, and (C) of pure PS, each doubly doped with the fluorescently labeled FRET pair NBD-PE (donor) and rhodamine-PE (acceptor). Intercalation was monitored by measuring donor and acceptor fluorescence emission intensities. For better visualization only the quotient (IDonor/IAcceptor) is shown. Addition of the peptide solvent alone had no effect (dotted grey line). Peptide concentrations used: 0.2 μM (dotted black line, only in C), 0.4 μM (solid grey line, only in C), and 0.8 μM (solid black line). (D-F) Binding to and insertion of peptides at different concentrations into phospholipid membranes. (A) Peptides were added to liposomes consisting of pure PC, (B) a 90:10 molar mixture of PC:PS, and (C) of pure PS, each doubly doped with the fluorescently labeled phospholipid FRET pair NBD-PE (donor) and rhodamine-PE (acceptor). Intercalation was monitored by measuring donor and acceptor fluorescence intensities. The relative increase of the IDonor/IAcceptor ratio 250 s after peptide addition is shown (Increase of IDonor/IAcceptor (%) = (IDonor/IAcceptor (peptide) - IDonor/IAcceptor (control))*100). Peptide concentrations used: 0.2 μM (open bars), 0.4 μM (grey bars), and 0.8 μM (black bars).
Intercalation of peptides into liposome membranes was determined by FRET spectroscopy applied as a probe dilution assay. Liposomes were prepared by dissolving appropriate lipid mixtures (pure PC, a 90:10 molar mixture of PC:PS, as well as pure PS, each doped with 1% of the donor dye NBD-PE and 1% of the acceptor dye rhodamine-PE) in chloroform and drying them under a gentle stream of nitrogen. The resulting lipid film was dispersed in 20 mM HEPES, 150 mM NaCl, pH 7.4, sonicated for 30 min and subjected to 3-4 temperature cycles from 4 to 60°C with an incubation period of 30 min at each step. Lipid dispersions were stored at 4°C overnight before use. For the assay, donor fluorescence (NBD) was excited at 470 nm, and donor (NBD, ID at 531 nm) as well as acceptor (rhodamine, IA at 593 nm) emission intensities were monitored over time. An increase of the ratio of the donor fluorescence intensity to that of the acceptor fluorescence intensity (IDonor/I^Acceptor) was interpreted as a membrane intercalation event. This ratio depends on the Förster efficiency, therefore a rising value means that the mean distance separation of donor and acceptor dyes is raising. The assay was performed at 37°C.

[2] = tested on: HROC24 xenografts; assay: HROC24 xenograft, repetitive local peptide injection; format: in vivo, NMRI Foxn1nu mice; details: for Tumor growth inhibition in words / Tumors macroscopically breaking up / ulceration / Tumor size, x-fold increase vs. day 0 (Vt/V0): 1 mg/kg bw local injection every third day, 9 injections, n=5; for Tumor cell apoptosis, M30 CytoDeath staining (cytokeratin 18 cleavage): immunofluorescence of cryopreserved tumor sections; for Tumor size, x-fold increase vs. day 0 (Vt/V0): PBS control: 10.3-fold
Experimental: Figure 7 In vivo growth kinetics and tumor cell apoptosis of HROC24 tumors in NMRI Foxn1mice with or without local treatment (A) Therapy was performed by repetitive local application of HDPs C7A or C7A-D21K (1 mg/kg bw) every third day (a total of 9 injections) (n=5 per group). Tumor-carrying control animals received either equivalent volumes of peptide NK11 or saline (n=5 per group). Tumor volumes are given as x-fold increase vs. day 0 (Vt/V0) (start of treatment) ± SD. *p<0.05 vs. PBS. (B) Representative immunofluorescence staining of apoptotic cells within HROC24 tumors. Cryopreserved tumor sections were stained with anti-M30 CytoDeath antibody, followed by anti-mouse IgG FITC antibody and nuclear DAPI as described in material and methods.
Experiments were performed on female 8–10-week old NMRI Foxn1^nu mice (Charles River, Sulzfeld, Germany) weighting 18-20 g. All animals were fed standard laboratory chow and given free access to water. Trials were performed in accordance with the German legislation on protection of animals and the Guide for the Care and Use of Laboratory Animals (Institute of Laboratory Animal Resources, National Research Council; NIH Guide, vol.25, no.28, 1996). NMRI Foxn1^nu mice were challenged with 5 × 10^6 HROC24 cells. Mice with established subcutaneous (s.c.) tumors received repetitive local injections of peptide C7A or C7A-D21K (1mg/kg bw, dissolved in 50 μl) every third day (a total of 9 injections) (n=5 per group). As control, tumor-carrying mice either received NK11 (1mg/kg bw, dissolved in 50 μl) or saline (50μl volume, n=5 per group). Tumor growth was controlled three times a week at time point of HDP injection and tumor volume was estimated according to the formula: V= width² * length * 0.52.
Tumor carrying mice were sacrificed at day 28 or when they became moribund before the tumor volume reached 2.000 mm³. At the end of each experiment, tumors, blood and spleens were collected from the animals of all groups for further analysis.
To study apoptotic cell death in vivo, 4 μm sections of HDP-treated and control tumors were mounted on poly-L-lysine-coated-slides. Following fixation in ice-cold methanol and blocking with 2% BSA (1h), cells were incubated with mouse anti-M30 CytoDeath antibody according to the manufacturer's instructions (Roche, Mannheim, Germany). A FITC-labeled anti-mouse IgG antibody was used as secondary antibody (Dako Envision Link, Hamburg, Germany). Cell nuclei were stained with DAPI and slides were embedded in mounting medium (Dako). Apoptotic cells were detected using a fluorescence microscope (Olympus, Münster, Germany).

| Sequence | Membrane intercalation (increase of IDonor/IAcceptor) ([1]; PC:PS 90:10 liposomes 10 μM) | Membrane intercalation (increase of IDonor/IAcceptor) ([1]; pure PS liposomes 10 μM) | Tumor growth inhibition in words [2] | Tumors macroscopically breaking up / ulceration [2] | Tumor cell apoptosis, M30 CytoDeath staining (cytokeratin 18 cleavage) [2] | Tumor size, x-fold increase vs. day 0 (Vt/V0) [2] [fold] | Membrane intercalation (increase of IDonor/IAcceptor) ([1]; pure PC liposomes 10 μM) |
| --- | --- | --- | --- | --- | --- | --- | --- |
| KILRGVAKKIMRTFLRRISKDILTGKK [Peptide C7A, NK-2 derivative, Cys7 replaced with Ala] | slightly impaired | pronounced | most effectiveness | 4/5 | most strongly induced |  |  |
| KILRGVAKKIMRTFLRRISKKILTGKK [Peptide C7A-D21K, C7A with Asp21 substituted by Lys] | slightly impaired | pronounced | strong growth retardation | no ulceration was observed | most strongly induced | 3.4 |  |
| KISKRILTGKK [NK11, non-toxic control peptide based on NK-2, reference compound] | negligible | visible | induced tumor growth retardation as well |  | elevated cytokeratin 18 cleavage | 4 | negligible |
